These results are taken from ChEMBL document CHEMBL1201862, “PubChem BioAssay data set” (2004).

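Exposure lasted 48 hours, with cells grown in 96-well plates and compounds tested at five concentrations. GI50 is the concentration that inhibits growth by half.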 Activity calls are given as the source filed them. No stated cut-off is given here; in the data, active = GI50 up to about 1.1 µM and inactive = higher.

Among the test systems are 786-0; CCRF-CEM; COLO 205; HCT-15; HOP-92; IGROV-1; M14; MDA-MB-231; MDA-MB-435; NCI-H23; OVCAR-5; OVCAR-8; SF-268; SK-OV-3; TK-10; U-251; UACC-62; Hs-578T; KM12; RXF 393.
Holding throughout (test): NCI-60 cell line screen, 48 h

For `NC(=S)C1=C(N)Oc2c(c(=O)oc3ccccc23)C1c1ccc(Br)cc1` (stereo not given), the GI50 was > 100 µM (inactive) in the test on 786-0; 36.3 µM (inactive) in the test with CCRF-CEM; > 100 µM (inactive) with COLO 205; more than 100 µM in the test on HCT-15; 40 µM (inactive) with HOP-92; > 100 µM (inactive) with IGROV-1. The GI50 in the test with M14, in the test with MDA-MB-231, with MDA-MB-435, with NCI-H23, in the test with OVCAR-5 and in the test with OVCAR-8 was > 100 µM (inactive) each time. For the same compound, the GI50 with SF-268, in the test with SK-OV-3, with TK-10, in the test on U-251 and in the test with UACC-62 was > 100 µM (inactive) throughout.

Consider `CC(C)(C)N/N=C(\C(=O)NC1=C(Cl)C(=O)c2ccccc2C1=O)C1C=CCS1(=O)=O` (stereo not given), for which the GI50 is 22.4 µM (inactive) in the test on 786-0; > 100 µM (inactive) in the test with CCRF-CEM; 16.6 µM (inactive) with COLO 205; 7.06 µM with HCT-15; 14.1 µM (inactive) in the test on HOP-92; 19.5 µM (inactive) in the test with Hs-578T. Also, the GI50 in the test with IGROV-1 was 10 µM (inactive); in the test with KM12 it was 16 µM (inactive); in the test on M14, 11.5 µM (inactive); with MDA-MB-231 it was 14.6 µM (inactive); with NCI-H23 it was 8.15 µM (inactive); in the test on OVCAR-5, 21.2 µM (inactive). For the same compound, the GI50 with OVCAR-8 was 19.8 µM (inactive); in the test on SF-268, 21.9 µM (inactive); in the test with SK-OV-3, > 100 µM (inactive); with TK-10, 38.9 µM (inactive); in the test with U-251, > 100 µM (inactive); in the test with UACC-62, 3.3 µM (inactive).

On to `COC(=O)C(Cc1ccccc1)NC(=O)Cn1ccnc1[N+](=O)[O-]` (stereo not given), for which the GI50 is > 100 µM (inactive) with 786-0; > 100 µM (inactive) in the test on CCRF-CEM; 77.3 µM (inactive) in the test on COLO 205; more than 100 µM in the test on HCT-15; 63.8 µM (inactive) in the test with HOP-92; > 100 µM (inactive) with IGROV-1. Also, the GI50 in the test on KM12, with M14, in the test with NCI-H23, in the test on OVCAR-5, in the test on OVCAR-8 and in the test on RXF 393 was > 100 µM (inactive) in each case. The GI50 with SF-268, in the test with SK-OV-3, with TK-10, in the test with U-251 and with UACC-62 was > 100 µM (inactive) in each case.

For the compound `C=C=C(Sc1ccccc1)C(C)(C)O`, the GI50 is > 100 µM (inactive) in the test on 786-0; > 100 µM (inactive) with CCRF-CEM; > 100 µM (inactive) with COLO 205; more than 100 µM in the test on HCT-15; > 100 µM (inactive) in the test on HOP-92; > 100 µM (inactive) in the test with IGROV-1. Moreover, the GI50 with KM12, in the test on M14, in the test on NCI-H23, in the test on OVCAR-5, in the test with OVCAR-8 and in the test with RXF 393 was > 100 µM (inactive) in each case. Besides, the GI50 in the test with SF-268, in the test on SK-OV-3, in the test on TK-10, in the test with U-251 and in the test with UACC-62 was > 100 µM (inactive) in each case.

In the case of `C[N+](C)([O-])Cc1cccc(NC(=O)c2ccc(C(=O)Nc3cccc(C[N+](C)(C)[O-])c3)cc2)c1`, the GI50 is > 100 µM (inactive) in the test on 786-0; > 100 µM (inactive) in the test with CCRF-CEM; > 100 µM (inactive) in the test with COLO 205; more than 100 µM in the test with HCT-15; > 100 µM (inactive) in the test with HOP-92; > 100 µM (inactive) in the test with IGROV-1. In addition, the GI50 with KM12, with M14, in the test with MDA-MB-231, in the test with NCI-H23, with OVCAR-5 and in the test with OVCAR-8 was > 100 µM (inactive) throughout. Moreover, the GI50 in the test on RXF 393, in the test on SF-268, in the test with SK-OV-3, in the test with TK-10, in the test with U-251 and in the test with UACC-62 was > 100 µM (inactive) in each case.

Take `CN1N(c2ccccc2)C(=O)C2=NC=C(C#N)C(=N)C21C` (stereo not given): the GI50 was > 100 µM (inactive) in the test on 786-0; > 100 µM (inactive) with CCRF-CEM; > 100 µM (inactive) with COLO 205; more than 100 µM with HCT-15; > 100 µM (inactive) with HOP-92; > 100 µM (inactive) in the test on IGROV-1. Also, the GI50 in the test on KM12, in the test with M14, with MDA-MB-231, with MDA-MB-435, with NCI-H23 and in the test with OVCAR-5 was > 100 µM (inactive) throughout. Further, the GI50 in the test with OVCAR-8, in the test on RXF 393, in the test with SK-OV-3, in the test on TK-10, in the test on U-251 and with UACC-62 was > 100 µM (inactive) throughout.

`O=C1/C(=C/c2ccc(Cl)cc2)CSC/C1=C\c1ccc(Cl)cc1`: the GI50 with 786-0 was 3.08 µM (inactive); with CCRF-CEM it was 2.68 µM (inactive); with COLO 205, 3.02 µM (inactive); in the test on HCT-15, 13.9 µM; with HOP-92, 21.2 µM (inactive); in the test with IGROV-1 it was 1.82 µM (inactive). The GI50 in the test on KM12 was 1.96 µM (inactive); in the test with M14 it was 1.84 µM (inactive); in the test with MDA-MB-231, 4.17 µM (inactive); in the test with NCI-H23, 2.9 µM (inactive); in the test with OVCAR-5, 2.19 µM (inactive); with OVCAR-8, 3.54 µM (inactive). Moreover, the GI50 was 1.35 µM (inactive) in the test on RXF 393; 5.96 µM (inactive) in the test with SF-268; 5.32 µM (inactive) in the test on SK-OV-3; 3.18 µM (inactive) in the test on TK-10; 1.67 µM (inactive) in the test with U-251; 1.51 µM (inactive) in the test on UACC-62.

Regarding `CNC(=O)C1(C#N)C(c2ccccc2)C(C#N)(C(=O)NC)C1c1ccccc1` (stereo not given), the GI50 in the test with 786-0 was > 100 µM (inactive); with CCRF-CEM, > 100 µM (inactive); in the test with COLO 205, > 100 µM (inactive); in the test with HCT-15 it was more than 100 µM; with HOP-92, > 100 µM (inactive); with Hs-578T, > 100 µM (inactive). In addition, the GI50 with IGROV-1, in the test on KM12, with M14, with MDA-MB-435, with NCI-H23 and in the test on OVCAR-5 was > 100 µM (inactive) each time. Also, the GI50 in the test with OVCAR-8, with SF-268, in the test with SK-OV-3, in the test on TK-10 and with U-251 was > 100 µM (inactive) in each case.

In the case of `O=C1/C(=C/c2cccc(Br)c2)CSC/C1=C\c1cccc(Br)c1`, the GI50 in the test with 786-0 was 3.45 µM (inactive); in the test with CCRF-CEM it was 1.4 µM (inactive); with COLO 205, 2.9 µM (inactive); in the test on HCT-15, 2.51 µM; in the test on HOP-92 it was 3.36 µM (inactive); with IGROV-1, 3.04 µM (inactive). In addition, the GI50 was 1.99 µM (inactive) with KM12; 2.4 µM (inactive) in the test with M14; 4.2 µM (inactive) with MDA-MB-231; 3.66 µM (inactive) in the test on NCI-H23; 4.88 µM (inactive) in the test on OVCAR-5; 1.9 µM (inactive) with OVCAR-8. Besides, the GI50 in the test on RXF 393 was 1.79 µM (inactive); in the test with SF-268, 5.33 µM (inactive); with SK-OV-3 it was 5.79 µM (inactive); in the test with TK-10 it was 5.69 µM (inactive); in the test on U-251 it was 1.87 µM (inactive); with UACC-62 it was 1.65 µM (inactive).

In the case of `Oc1cc(O)cc(-c2nc3cc(F)ccc3s2)c1`, the GI50 with 786-0 was 20.6 µM (inactive); in the test on CCRF-CEM, 27.5 µM (inactive); in the test on COLO 205, 21 µM (inactive); in the test on HCT-15 it was 19.7 µM; in the test with IGROV-1 it was 27.7 µM (inactive); in the test with KM12, 20.4 µM (inactive). Besides, the GI50 with M14 was 19.4 µM (inactive); in the test on MDA-MB-231, 25.6 µM (inactive); with MDA-MB-435, 30.5 µM (inactive); with NCI-H23, 26.4 µM (inactive); with OVCAR-5, 20.8 µM (inactive); in the test on OVCAR-8, 22.6 µM (inactive). For the same compound, the GI50 in the test with RXF 393 was 22.7 µM (inactive); with SF-268, 19.4 µM (inactive); in the test on SK-OV-3 it was 25.8 µM (inactive); in the test on TK-10, 30.3 µM (inactive); in the test on U-251 it was 22.8 µM (inactive); in the test with UACC-62, 21.1 µM (inactive).

In the case of `Nc1ccn(C2OC(COP(=O)(O)O)C(O)C2O)c(=O)n1` (stereo not given), the GI50 is 5.31 µM (inactive) in the test on 786-0; < 0.01 µM (active) with CCRF-CEM; > 55.3 µM (inactive) with COLO 205; 45.5 µM in the test on HCT-15; 17.8 µM (inactive) in the test on HOP-92; 40.7 µM (inactive) with IGROV-1. Moreover, the GI50 with KM12 was > 100 µM (inactive); in the test with M14, 0.982 µM (active); in the test on MDA-MB-231 it was > 100 µM (inactive); in the test with MDA-MB-435 it was 14.5 µM (inactive); in the test on NCI-H23, 8.83 µM (inactive); with OVCAR-5, > 100 µM (inactive). For the same compound, the GI50 in the test with OVCAR-8 was 2.47 µM (inactive); in the test with RXF 393, 11.1 µM (inactive); with SF-268, 10.9 µM (inactive); in the test with SK-OV-3, 42.1 µM (inactive); in the test with TK-10, > 100 µM (inactive); in the test with U-251 it was 14.3 µM (inactive). Moreover, the GI50 in the test with UACC-62 was 10.9 µM (inactive).
